Laboratory results as given in US11643636B2, “Method of creating human pluripotent stem cell derived brain pericyte-like cells” (Wisconsin Alumni Research Foundation, priority 2018, dated 2023).

System: hPSCs (H9 hESCs, IMR90C4 and CS03n2 iPSCs)
Assay: Differentiation of hPSCs to NCSCs (p75-NGFR/HNK1 immunocytochemistry, flow cytometry)
Assay type: cell-based, human
Details: CHIR99021 increased to 2 μM in E6-CSF, 15 days
Method: We first assessed the capability of E6, a reduced factor medium, to support differentiation of H9 human embryonic stem cells (hESCs) and IMR90C4 and CS03n2 induced pluripotent stem cells (iPSCs) to NCSCs. H9 hESCs were cultured for 15 days in E6 medium supplemented with heparin and pathway modulators previously implicated in hPSC differentiation to NCSCs (48): 1 μM CHIR99021, a GSK3β inhibitor to promote WNT signaling; 10 μM SB431543, an ALK5 antagonist to inhibit Activin/Nodal/TGFβ signaling; and 10 ng/mL FGF2 (E6-CSF).
To examine the effects of BMP inhibition on hPSC differentiation to NCSCs in minimal medium, E6-CSF medium was supplemented with 1 μM dorsomorphin, a BMP type I receptor inhibitor, to generate E6-CSFD.
One day prior to initiating NCSC differentiation, hPSCs maintained in E8 medium were singularized using Accutase and seeded at 9.1×10^4 cells/cm^2 onto Matrigel coated plates with E8+10 μM Y27632. […]
Cells were fixed fifteen minutes at room temperature with either 4% paraformaldehyde (PFA) or 100% ice-cold methanol depending on antibody staining conditions. Cells were rinsed three times in PBS without Ca^2+/Mg^2+ and stored at 4° C. in PBS until ready to stain. […]

## Cc1c[nH]c(-c2cnc(NCCNc3ccc(C#N)cn3)nc2-c2ccc(Cl)cc2Cl)n1 [CHIR99021]
  induction of p75-NGFR expression: did not aid in inducing p75-NGFR expression
